The target in this assay is T1, Oxytocin receptor (Homo sapiens, UniProt P30559).
T1 sequence (P30559 whole entry): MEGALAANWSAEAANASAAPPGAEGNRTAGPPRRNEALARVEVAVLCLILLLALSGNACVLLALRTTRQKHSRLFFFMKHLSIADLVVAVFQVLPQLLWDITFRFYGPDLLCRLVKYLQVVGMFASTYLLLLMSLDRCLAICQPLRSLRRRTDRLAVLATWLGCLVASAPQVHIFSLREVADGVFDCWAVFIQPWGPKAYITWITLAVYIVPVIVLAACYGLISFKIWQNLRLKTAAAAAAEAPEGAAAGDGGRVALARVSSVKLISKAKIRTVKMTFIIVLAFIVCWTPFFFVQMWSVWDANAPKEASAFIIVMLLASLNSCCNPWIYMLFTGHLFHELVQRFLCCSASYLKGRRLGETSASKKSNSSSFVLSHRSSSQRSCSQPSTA
Briefly: Agonist activity at human OTR expressed in CHO cells assessed as calcium mobilization measured after 30 mins by Fluo-4-AM dye based FLIPR assay. (A change in cytosolic calcium serves as a functional read-out for many receptors and channels.)

The text below walks through data of BindingDB's records for doi:10.1016/j.bmcl.2017.04.030 (Takeda Pharmaceutical, 2017).

Numbered stars: 1 amine (or outer) side, 2 acyl side, 3 side chain; on linkers, the order of the positions; unused ones are H or OH. Bridge positions count the residues as written; N and C are the ends. Square brackets hold non-standard residues; d marks the D form. Peptide text beside a SMILES is read from it. tBuAla = CC(C)(C)C[C@H](N)C(=O)O; X1 = O=C(CCC[*:2])[*:1]

The EC50 is the concentration that produces a half-maximal response.

Take `CC[C@H](C)[C@@H]1NC(=O)[C@H](Cc2ccc(O)cc2)NC(=O)CCSSC[C@@H](C(=O)N2CCC[C@H]2C(=O)N[C@@H](CC(C)C)C(=O)NNC(N)=O)NC(=O)[C@H](CC(N)=O)NC(=O)[C@H](CCC(N)=O)NC1=O`: the EC50 amounted to 8 pM.

Regarding `CC[C@H](C)[C@@H]1NC(=O)[C@H](Cc2ccc(O)cc2)NC(=O)CCCSC[C@@H](C(=O)N2CCC[C@H]2C(=O)N[C@@H](CC(C)(C)C)C(=O)NCC(N)=O)NC(=O)[C@H](CC(N)=O)NC(=O)[C@H](CCC(N)=O)NC1=O` (YIQNCP[tBuAla]G-NH2; linker N-5 via X1), the half-maximal effective concentration (EC50) amounted to 7 pM.
